Data from DBAASP.
Values after ≈ are worked out from the molar mass of the structure shown. Each block holds one molecule with its values, some of them ahead of it.

Columns and labels:
Assay in all cases: ≥ marks a high value that may be exact or a test limit, other limits are often not marked, values filed in µg/mL are converted to µM
[1] = test system: Aeromonas salmonicida NCIMB 1102
[2] = test system: Corynebacterium glutamicum ATCC 13032
[3] = test system: Escherichia coli ATCC 25922
[4] = test system: Micrococcus luteus ATCC 4698
[5] = test system: Planococcus citreus NCIMB 1493
[6] = test system: Psychrobacter immobilis NCIMB 308
[7] = test system: Staphylococcus aureus ATCC 9144
[8] = test system: Vibrio anguillarum NCIMB 2129
[9] = test system: Vibrio anguillarum NCIMB 2133
[10] = test system: Vibrio anguillarum VI-F258-3
[11] = test system: Yersinia ruckeri NCIMB 2196
[12] = test system: Yersinia ruckeri VI-3629
[13] = test system: Bacillus subtilis IFO 3513
[14] = test system: Escherichia coli IFO 12734
[15] = test system: Escherichia coli JM109
[16] = test system: Escherichia coli W160-37
[17] = test system: Micrococcus luteus ATCC 9341
[18] = test system: Saccharomyces cerevisiae PEP 4/3l
[19] = test system: Staphylococcus aureus ATCC 8530
[20] = test system: Staphylococcus aureus IFO 12732
[21] = test system: Bacillus subtilis KCTC 1918
[22] = test system: Candida albicans TIMM 1768
[23] = test system: Proteus vulgaris KCTC 2433
[24] = test system: Saccharomyces cerevisiae KCTC 7296
[25] = test system: Salmonella typhimurium KCTC 1926
[26] = test system: Staphylococcus aureus KCTC 1621
[27] = test system: Trichosporon beigelii KCTC 7707
[28] = test system: Acinetobacter baumannii NM35
[29] = test system: Acinetobacter baumannii NM8
[30] = test system: Candida albicans ATCC 90028
[31] = test system: Enterococcus faecalis ATCC 29212
[32] = test system: Escherichia coli ATCC 25726
[33] = test system: Klebsiella pneumoniae ATCC 700603
[34] = test system: Pseudomonas aeruginosa ATCC 27853
[35] = test system: Staphylococcus aureus 127/08
[36] = test system: Staphylococcus aureus 145/08
[37] = test system: Staphylococcus epidermidis RP62A/1
[38] = test system: Staphylococcus epidermidis RP62A
[39] = test system: Staphylococcus epidermidis T37/8
[40] = test system: Staphylococcus epidermidis T6/19
[41] = test system: Stenotrophomonas maltophilia B32/1
[42] = test system: Stenotrophomonas maltophilia B5/5
[43] = test system: Stenotrophomonas maltophilia U8908
[44] = test system: Aspergillus flavus KCTC 7375
[45] = test system: Bacillus megaterium KCTC 1096
[46] = test system: Candida albicans KCTC 7121
[47] = test system: Escherichia coli KCTC 1682
[48] = test system: Fusarium oxysporum KCTC 6084
[49] = test system: Proteus vulgaris
[50] = test system: Pseudomonas aeruginosa KCTC 1637
[51] = test system: Trichosporon beigelii KCTC 7251

Compound: CC[C@H](C)[C@H](NC(=O)[C@H](CC(C)C)NC(=O)CNC(=O)[C@@H](NC(=O)[C@@H](NC(=O)[C@H](Cc1cnc[nH]1)NC(=O)[C@H](Cc1cnc[nH]1)NC(=O)[C@H](CC(C)C)NC(=O)[C@@H](N)Cc1ccccc1)[C@@H](C)CC)C(C)C)C(=O)N[C@@H](Cc1cnc[nH]1)C(=O)N[C@@H](Cc1cnc[nH]1)C(=O)NCC(=O)N[C@@H](CC(C)C)C(=O)N[C@@H](CO)C(=O)N[C@@H](CC(C)C)C(=O)N[C@@H](Cc1ccccc1)C(=O)NCC(=O)N[C@@H](CC(=O)O)C(=O)N[C@@H](CCCN=C(N)N)C(=O)N[C@@H](C)C(=O)N[C@@H](CC(=O)O)C(=O)O [FLHHIVGLIHHGLSLFGDRAD]
MIC [1]: 10 µM (≈ 23.5 µg/mL)
MIC [2]: 10 µM (≈ 23.5 µg/mL)
MIC [3]: > 10 µM
MIC [4]: 10 µM (≈ 23.5 µg/mL)
MIC [5]: 10 µM (≈ 23.5 µg/mL)
MIC [6]: 3.54 µM (≈ 8.33 µg/mL)
MIC [7]: 10 µM (≈ 23.5 µg/mL)
MIC [8]: 10 µM (≈ 23.5 µg/mL)
MIC [9]: 10 µM (≈ 23.5 µg/mL)
MIC [10]: 10 µM (≈ 23.5 µg/mL)
MIC [11]: 3.54 µM (≈ 8.33 µg/mL)
MIC [12]: 10 µM (≈ 23.5 µg/mL)

Compound: CC[C@H](C)[C@H](NC(=O)CNC(=O)[C@H](CC(C)C)NC(=O)[C@H](CCCN=C(N)N)NC(=O)[C@H](CCCCN)NC(=O)[C@H](Cc1ccccc1)NC(=O)[C@@H](NC(=O)[C@H](CCCCN)NC(=O)[C@H](Cc1c[nH]c2ccccc12)NC(=O)[C@H](C)N)C(C)C)C(=O)NCC(=O)N[C@@H](C)C(=O)N[C@H](C(=O)N[C@@H](CC(C)C)C(=O)N[C@@H](Cc1c[nH]c2ccccc12)C(=O)N[C@H](C(=O)N[C@@H](CC(C)C)C(=O)N[C@H](C(=O)N[C@@H](Cc1c[nH]c2ccccc12)C(=O)NCC(=O)O)[C@@H](C)O)C(C)C)C(C)C [AWKVFKRLGIGAVLWVLTWG]
MIC [21]: 6.25 µM (≈ 14.4 µg/mL)
MIC [22]: ≥ 50 µM
MIC [23]: 6.25 µM (≈ 14.4 µg/mL)
MIC [24]: ≥ 50 µM
MIC [25]: 0.78 µM (≈ 1.79 µg/mL)
MIC [26]: 6.25 µM (≈ 14.4 µg/mL)
MIC [27]: ≥ 50 µM

Second part, the molecule after the results:

MIC [13]: 7.3 µM (≈ 12.5 µg/mL)
MIC [14]: ≥ 58.4 µM
MIC [15]: 8 µM (≈ 13.7 µg/mL)
MIC [16]: 16 µM (≈ 27.4 µg/mL)
MIC [17]: 0.4 µM (≈ 0.684 µg/mL)
MIC [18]: 13.1 µM (≈ 22.3 µg/mL)
MIC [19]: 1.65 µM (≈ 2.83 µg/mL)
MIC [20]: 3.65 µM (≈ 6.25 µg/mL)
Compound: CC[C@H](C)[C@H](N)C(=O)N[C@@H](CC(C)C)C(=O)N1CCC[C@H]1C(=O)N[C@@H](Cc1ccccc1)C(=O)N[C@@H](CCCCN)C(=O)N[C@@H](Cc1ccccc1)C(=O)N1CCC[C@H]1C(=O)N[C@@H](Cc1ccccc1)C(=O)N[C@@H](Cc1ccccc1)C(=O)N1CCC[C@H]1C(=O)N[C@@H](Cc1ccccc1)C(=O)N[C@@H](CCCN=C(N)N)C(=O)N[C@@H](CCCN=C(N)N)C(N)=O [ILPFKFPFFPFRR]

MIC [28]: 10 µM (≈ 28.7 µg/mL)
MIC [29]: 20 µM (≈ 57.5 µg/mL)
MIC [30]: ≥ 80 µM
MIC [31]: 20 µM (≈ 57.5 µg/mL)
MIC [32]: ≥ 80 µM
MIC [33]: > 80 µM
MIC [34]: > 80 µM
MIC [35]: 5 µM (≈ 14.4 µg/mL)
MIC [36]: 10 µM (≈ 28.7 µg/mL)
MIC [37]: 2.5 µM (≈ 7.18 µg/mL)
MIC [38]: 5 µM (≈ 14.4 µg/mL)
MIC [39]: 10 µM (≈ 28.7 µg/mL)
MIC [40]: 5 µM (≈ 14.4 µg/mL)
MIC [41]: 10 µM (≈ 28.7 µg/mL)
MIC [42]: ≥ 40 µM
MIC [43]: 20 µM (≈ 57.5 µg/mL)
Compound: CC[C@H](C)[C@H](NC(=O)CN)C(=O)N[C@@H](Cc1ccccc1)C(=O)N1CCC[C@H]1C(=O)N[C@H](C(=O)N[C@@H](Cc1ccccc1)C(=O)N[C@@H](C)C(=O)N[C@@H](CCCCN)C(=O)N[C@@H](CC(C)C)C(=O)N[C@@H](CC(C)C)C(=O)NCC(=O)N[C@@H](CCCCN)C(=O)N[C@H](C(=O)N[C@H](C(=O)N[C@@H](CCCCN)C(=O)N[C@H](C(=O)N[C@@H](C)C(=O)N[C@@H](CO)C(=O)N[C@@H](CO)C(=O)N[C@@H](CC(C)C)C(=O)N[C@H](C(=O)N[C@@H](CO)C(=O)N[C@@H](CCCCN)C(=O)NCC(=O)N[C@@H](CCCN=C(N)N)C(=O)N[C@H](C(=O)N[C@@H](CCC(=O)O)C(=O)O)[C@@H](C)O)[C@@H](C)CC)C(C)C)[C@@H](C)CC)C(C)C)[C@@H](C)CC [GIFPIFAKLLGKVIKVASSLISKGRTE]

MIC [44]: ≥ 100 µM
MIC [45]: 3.12 µM (≈ 5.93 µg/mL)
MIC [21]: 0.78 µM (≈ 1.48 µg/mL)
MIC [46]: ≥ 50 µM
MIC [47]: 8.84 µM (≈ 16.8 µg/mL)
MIC [48]: ≥ 100 µM
MIC [49]: 3.12 µM (≈ 5.93 µg/mL)
MIC [50]: 6.25 µM (≈ 11.9 µg/mL)
MIC [26]: 6.25 µM (≈ 11.9 µg/mL)
MIC [51]: ≥ 50 µM
Compound: CC[C@H](C)[C@H](NC(=O)[C@H](CCCCN)NC(=O)[C@H](CCCCN)NC(=O)[C@H](Cc1ccccc1)NC(=O)[C@H](CC(C)C)NC(=O)[C@H](CCCCN)NC(=O)[C@H](Cc1c[nH]c2ccccc12)NC(=O)[C@@H](N)CCCCN)C(=O)N1CCC[C@H]1C(=O)N[C@@H](CCCCN)C(=O)N[C@@H](Cc1ccccc1)C(=O)N[C@@H](CC(C)C)C(=O)N[C@@H](Cc1cnc[nH]1)C(=O)N[C@@H](CC(C)C)C(=O)N[C@@H](C)C(N)=O [KWKLFKKIPKFLHLA]
